Results as given in article PMC7413254 (Nature Communications, 2020).
Values joined by “and” are separate entries in the source; they are usually repeats but may differ in a detail not shown here. Equal values may be shown once.

Experiments:
PfCRT^3D7 [1] = target: T1, PfCRT^3D7 (Plasmodium falciparum, UniProt Q8IBZ9); test: cell-based; assay type: cell-based
Procedure, shortened: (§1)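 Oocytes (ten per treatment, ≥4 independent frogs/days) were preloaded by injecting VF-6 in 25 nL ND96 at pH 5.0, 5.5, 6.0 or 7.0, or Na^+-free choline buffer, then uptake run 1.5 h, 27.5 °C, ND96 pH 5.5 by default. Internal concentrations assumed ~400 nL oocyte volume.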

PfNT1 = target: T2, PfNT1 (Plasmodium falciparum, UniProt Q8IDM6); test: cell-based; assay type: cell-based
T2 construct: expressed in transfected cells; host or cells: Xenopus laevis oocytes (stage V-VI), cRNA-injected
Procedure, shortened: as §1

non-expressing oocytes [2] = test: cells; assay type: cell-based, Xenopus laevis
Text: (§2) The orientation of PfCRT in the parasite’s DV membrane, and also in the oocyte plasma membrane, is such that its N- and C-termini extend into the cytosol. The oocytes were suspended in a reaction buffer adjusted to pH 5.5 to mimic the pH of the DV lumen[1],[2]. In this scenario, the transport of a substrate via PfCRT from the acidic extracellular solution into the oocyte cytosol[15] is analogous to the parasite’s PfCRT-mediated efflux of a substrate from the acidic DV and into the cytosol. Unless specified otherwise, this is the direction in which substrate transport was measured in the oocyte assays.
(§3) Unless specified otherwise, the transport assays were conducted over 1.5 h at 27.5 °C and the reaction buffer was ND96 (96 mM NaCl, 2 mM KCl, 1 mM MgCl2, 1.8 mM CaCl2, 10 mM MES and 10 mM Tris-base) at pH 5.5.
(§4) Ten oocytes were washed twice with the relevant ND96 buffer. […] The assay was terminated by removing the reaction buffer and washing the oocytes with ice-cold ND96 buffer. The oocytes were lysed in 10% (w/v) sodium dodecyl sulfate (SDS) and the radioactivity accumulated within each oocyte was measured with a MicroBeta^2 microplate liquid scintillation analyser (PerkinElmer).
(§5) At least four independent experiments were performed (on different days and using oocytes from different frogs), and within each experiment measurements were made from ten oocytes per treatment.

non-expressing oocytes [3] = assay type: cell-based, Xenopus laevis
Procedure, shortened: as §1

PfCRT^3D7 [4] = target: T1, PfCRT^3D7; test: cell-based; assay type: cell-based; remark: listed apart in the source
Text: as §2, §3, §4, §5

T1 sequence (Q8IBZ9 59-398): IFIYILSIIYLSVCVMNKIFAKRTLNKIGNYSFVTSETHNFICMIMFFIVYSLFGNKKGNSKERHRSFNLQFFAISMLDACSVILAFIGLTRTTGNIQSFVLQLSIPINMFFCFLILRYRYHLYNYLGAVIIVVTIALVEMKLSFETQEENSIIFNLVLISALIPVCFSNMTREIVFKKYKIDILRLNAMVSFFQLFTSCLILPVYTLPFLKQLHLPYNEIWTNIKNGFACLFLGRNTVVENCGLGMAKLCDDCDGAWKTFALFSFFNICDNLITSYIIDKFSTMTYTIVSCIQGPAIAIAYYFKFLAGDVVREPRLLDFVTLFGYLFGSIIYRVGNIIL
T2 sequence (Q8IDM6 whole entry): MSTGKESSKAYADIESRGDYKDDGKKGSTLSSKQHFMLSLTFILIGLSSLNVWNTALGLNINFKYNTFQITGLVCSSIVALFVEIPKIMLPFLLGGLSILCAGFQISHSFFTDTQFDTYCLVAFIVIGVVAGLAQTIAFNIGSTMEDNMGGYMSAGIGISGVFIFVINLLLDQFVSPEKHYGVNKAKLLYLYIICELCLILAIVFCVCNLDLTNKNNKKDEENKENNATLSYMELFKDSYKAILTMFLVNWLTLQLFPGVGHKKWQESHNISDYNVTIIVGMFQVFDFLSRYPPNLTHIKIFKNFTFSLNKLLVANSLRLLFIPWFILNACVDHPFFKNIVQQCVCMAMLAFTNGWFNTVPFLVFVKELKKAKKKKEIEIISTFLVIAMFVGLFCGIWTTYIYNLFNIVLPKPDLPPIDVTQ

SMILES: CC[N+](CC)(CC)CC [Tetraethyl ammonium]
- PfCRT-mediated [3H]CQ transport, trans-stimulation by injected solute, PfCRT3D7 (PfCRT^3D7 [1]): 0.6 ± 0.02 and 0.7 ± 0.01
- Total [3H]CQ transport, trans-stimulation by solute (PfCRT^3D7 [1]): 3.6 ± 0.05 and 3.7 ± 0.05
- Trans-stimulation data: PfCRT-mediated [3H]CQ transport (PfCRT^3D7 [1]): 97 ± 2.2 and 99 ± 2.6
- Trans-stimulation data: total [3H]CQ transport with the solute injected (PfCRT^3D7 [1]): 99 ± 0.3 and 101 ± 3.7
- Total [3H]CQ transport, trans-stimulation by solute (PfNT1): 3.2 ± 0.1 and 2.8 ± 0.02
- Trans-stimulation data: total [3H]CQ transport with the solute injected (PfNT1): 99 ± 3.5 and 100 ± 3.6
- Cis-inhibition data: total [3H]CQ transport in the presence of the solute (non-expressing oocytes [2]): 99 ± 4.8 and 101 ± 4.7 and 99 ± 3.6
- Total [3H]CQ transport, cis-inhibition by solute (non-expressing oocytes [2]): 2.2 ± 0.03 and 3.3 ± 0.08 and 2.8 ± 0.03
- Total [3H]CQ transport, trans-stimulation by solute (non-expressing oocytes [3]): 2.5 ± 0.04 and 3.0 ± 0.04
- Trans-stimulation data: total [3H]CQ transport with the solute injected (non-expressing oocytes [3]): 99 ± 3.5 and 98 ± 5.7
- Cis-inhibition data: total [3H]CQ transport in the presence of the solute (PfCRT^3D7 [4]): 98 ± 5.7 and 101 ± 5.2 and 98 ± 5.2
- Total [3H]CQ transport, cis-inhibition by solute (PfCRT^3D7 [4]): 2.7 ± 0.06 and 3.2 ± 0.08 and 3.7 ± 0.02
